Measured values as given in patent publication US9833497B2, “Human originated EGF domain proteins and use of the same” (CHENGDU SOURCEBIO LIMITED-LIABILITY COMPANY, priority 2013, dated 2017).

Columns and labels:
Type in all cases: cell-based
Enterobacter cloacae = experiment: MIC against Gram-negative bacteria: Enterobacter cloacae; details: for MIC E. cloacae / MIC (μg/mL) E. cloacae: 96-well plate, 5×10^5 CFU/mL, 37° C., 10 h; for MIC: E. cloacae, 10 h cultivation at 37° C.; for MIC (μg/mL) E. cloacae: Enterobacter cloacae
Outline: (§1)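 Inocula prepared by growing LB cultures at 37° C to 0.5 McFarland, centrifuging at 4000×g, and resuspending in fresh medium. Final density 5×10^5 CFU/mL per well with two-fold dilutions of purified EGF domain protein; shaking incubation at 37° C.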

Serratia marcescens = experiment: MIC against Gram-negative bacteria: Serratia marcescens; details: for MIC S. marcescens / MIC (μg/mL) S. marcescens: 96-well plate, 5×10^5 CFU/mL, 37° C., 10 h; for MIC: S. marcescens, 10 h cultivation at 37° C.; for MIC (μg/mL) S. marcescens: Serratia marcescens
Outline: as §1

E. coli DH5α = experiment: Antibacterial activity: MIC and growth curve against E. coli DH5α in 96-well plate; details: minimal inhibitory concentration against E. coli DH5α; 96-well plate, 5×10^5 CFU/mL, 37° C., judged after 8 h
Outline: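 Log-phase DH5α (OD600 about 0.5, 37° C, 185 rpm in LB) was pelleted, resuspended in fresh LB and seeded at 5×10^5 CFU/mL with recombinant protein at 50, 25 and 12.5 μg/mL (two-fold series), in triplicate. Plates were shaken at 175 rpm, 37° C, and OD600 was read every 30 min. MIC was the lowest concentration with no growth.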

Proteus mirabilis = experiment: MIC against Gram-negative bacteria: Proteus mirabilis; details: for MIC P. mirabilis / MIC (μg/mL) P. mirabilis: 96-well plate, 5×10^5 CFU/mL, 37° C., 10 h; for MIC: P. mirabilis, 10 h cultivation at 37° C.; for MIC (μg/mL) P. mirabilis: Proteus mirabilis
Outline: as §1

E. coli BL21 = experiment: MIC against Gram-negative bacteria: E. coli BL21; details: for MIC E. coli BL21 / MIC (μg/mL) E. coli BL21: 96-well plate, 5×10^5 CFU/mL, 37° C., 10 h; for MIC / MIC (μg/mL) E. coli BL21: E. coli BL21; for MIC: 10 h cultivation at 37° C.
Outline: as §1

Proteus vulgaris = experiment: MIC against Gram-negative bacteria: Proteus vulgaris; details: for MIC P. vulgaris / MIC (μg/mL) P. vulgaris: 96-well plate, 5×10^5 CFU/mL, 37° C., 10 h; for MIC: P. vulgaris, 10 h cultivation at 37° C.; for MIC (μg/mL) P. vulgaris: Proteus vulgaris
Outline: as §1

Moraxella catarrhalis = experiment: MIC against Gram-negative bacteria: Moraxella catarrhalis; details: for MIC M. catarrhalis / MIC (μg/mL) M. catarrhalis: 96-well plate, 5×10^5 CFU/mL, 37° C., 10 h; for MIC: M. catarrhalis, 10 h cultivation at 37° C.; for MIC (μg/mL) M. catarrhalis: Moraxella catarrhalis
Outline: as §1

Aeromonas hydrophila = experiment: MIC against Gram-negative bacteria: Aeromonas hydrophila; details: for MIC A. hydrophila / MIC (μg/mL) A. hydrophila: 96-well plate, 5×10^5 CFU/mL, 37° C., 10 h; for MIC: A. hydrophila, 10 h cultivation at 37° C.; for MIC (μg/mL) A. hydrophila: Aeromonas hydrophila
Outline: as §1

Pseudomonas aeruginosa = experiment: MIC against Gram-negative bacteria: Pseudomonas aeruginosa; details: for MIC P. aeruginosa / MIC (μg/mL) P. aeruginosa: 96-well plate, 5×10^5 CFU/mL, 37° C., 10 h; for MIC: P. aeruginosa, 10 h cultivation at 37° C.; for MIC (μg/mL) P. aeruginosa: Pseudomonas aeruginosa
Outline: as §1

Citrobacter diversus = experiment: MIC against Gram-negative bacteria: Citrobacter diversus; details: for MIC C. diversus / MIC (μg/mL) C. diversus: 96-well plate, 5×10^5 CFU/mL, 37° C., 10 h; for MIC: C. diversus, 10 h cultivation at 37° C.; for MIC (μg/mL) C. diversus: Citrobacter diversus
Outline: as §1

Klebsiella pneumonia = experiment: MIC against Gram-negative bacteria: Klebsiella pneumonia; details: for MIC K. pneumonia / MIC (μg/mL) K. pneumonia: 96-well plate, 5×10^5 CFU/mL, 37° C., 10 h; for MIC: K. pneumonia, 10 h cultivation at 37° C.; for MIC (μg/mL) K. pneumonia: Klebsiella pneumonia
Outline: as §1

PRT653 (DVDECEDPQSSCLGGECKNTVGSYQCLCPQGFQLANGTVCE; listed as Homo sapiens)
MIC E. cloacae (Enterobacter cloacae): 25 µg/mL
MIC S. marcescens (Serratia marcescens): 25 µg/mL
MIC (E. coli DH5α): 25 µg/mL
MIC P. mirabilis (Proteus mirabilis): 12.5 µg/mL
MIC E. coli BL21 (E. coli BL21): 12.5 µg/mL
MIC P. vulgaris (Proteus vulgaris): 50 µg/mL
MIC M. catarrhalis (Moraxella catarrhalis): 25 µg/mL
MIC A. hydrophila (Aeromonas hydrophila): 12.5 µg/mL
MIC P. aeruginosa (Pseudomonas aeruginosa): 25 µg/mL
MIC C. diversus (Citrobacter diversus): 50 µg/mL
MIC K. pneumonia (Klebsiella pneumonia): 50 µg/mL

PRT1021 (LQNPCYIGTHGCDTNAACRPGPRTQFTCECSIGFRGDGRTCY; listed as Homo sapiens)
MIC (Enterobacter cloacae): 25 µg/mL
MIC (Serratia marcescens): 50 µg/mL
MIC (E. coli DH5α): 25 µg/mL
MIC (Proteus mirabilis): 50 µg/mL
MIC (E. coli BL21): 12.5 µg/mL
MIC (Proteus vulgaris): 12.5 µg/mL
MIC (Moraxella catarrhalis): 12.5 µg/mL
MIC (Aeromonas hydrophila): 12.5 µg/mL
MIC (Pseudomonas aeruginosa): 25 µg/mL
MIC (Citrobacter diversus): 50 µg/mL
MIC (Klebsiella pneumonia): 50 µg/mL

PRT77 (RSGRCTPGVCKNGGTCVNLLVGGFKCDCPSGDFEKPYCQ; listed as Homo sapiens)
MIC (μg/mL) E. cloacae (Enterobacter cloacae): 25 µg/mL
MIC (μg/mL) S. marcescens (Serratia marcescens): 50 µg/mL
MIC (E. coli DH5α): 25 µg/mL
MIC (μg/mL) P. mirabilis (Proteus mirabilis): 50 µg/mL
MIC (μg/mL) E. coli BL21 (E. coli BL21): 12.5 µg/mL
MIC (μg/mL) P. vulgaris (Proteus vulgaris): 50 µg/mL
MIC (μg/mL) M. catarrhalis (Moraxella catarrhalis): 12.5 µg/mL
MIC (μg/mL) A. hydrophila (Aeromonas hydrophila): 12.5 µg/mL
MIC (μg/mL) P. aeruginosa (Pseudomonas aeruginosa): 25 µg/mL
MIC (μg/mL) C. diversus (Citrobacter diversus): 50 µg/mL
MIC (μg/mL) K. pneumonia (Klebsiella pneumonia): 50 µg/mL

PRT114 (PKYGCNFNNGGCHQDCFEGGDGSFLCGCRPGFRLLDDLVTCA; listed as Homo sapiens)
MIC (μg/mL) E. cloacae (Enterobacter cloacae): 12.5 µg/mL
MIC (μg/mL) S. marcescens (Serratia marcescens): 12.5 µg/mL
MIC (E. coli DH5α): 12.5 µg/mL
MIC (μg/mL) P. mirabilis (Proteus mirabilis): 12.5 µg/mL
MIC (μg/mL) E. coli BL21 (E. coli BL21): 12.5 µg/mL
MIC (μg/mL) P. vulgaris (Proteus vulgaris): 12.5 µg/mL
MIC (μg/mL) M. catarrhalis (Moraxella catarrhalis): 12.5 µg/mL
MIC (μg/mL) A. hydrophila (Aeromonas hydrophila): 25 µg/mL
MIC (μg/mL) P. aeruginosa (Pseudomonas aeruginosa): 12.5 µg/mL
MIC (μg/mL) C. diversus (Citrobacter diversus): 12.5 µg/mL
MIC (μg/mL) K. pneumonia (Klebsiella pneumonia): 25 µg/mL

PRT1036 (VEDKCEKACRPEEECLALNSTWGCFCRQDLNSSDVHSLQPQLDCG; listed as Homo sapiens)
MIC (Enterobacter cloacae): 50 µg/mL
MIC (Serratia marcescens): 50 µg/mL
MIC (E. coli DH5α): 25 µg/mL
MIC (Proteus mirabilis): 50 µg/mL
MIC (E. coli BL21): 50 µg/mL
MIC (Proteus vulgaris): 50 µg/mL
MIC (Moraxella catarrhalis): 12.5 µg/mL
MIC (Aeromonas hydrophila): 12.5 µg/mL
MIC (Pseudomonas aeruginosa): 25 µg/mL
MIC (Citrobacter diversus): 50 µg/mL
MIC (Klebsiella pneumonia): 25 µg/mL

PRT727 (EFDDCQIWGICDQKCESRPGRHLCHCEEGYILERGQYCK; listed as Homo sapiens)
MIC E. cloacae (Enterobacter cloacae): 50 µg/mL
MIC S. marcescens (Serratia marcescens): 50 µg/mL
MIC (E. coli DH5α): 12.5 µg/mL
MIC P. mirabilis (Proteus mirabilis): 50 µg/mL
MIC E. coli BL21 (E. coli BL21): 25 µg/mL
MIC P. vulgaris (Proteus vulgaris): 12.5 µg/mL
MIC M. catarrhalis (Moraxella catarrhalis): 25 µg/mL
MIC A. hydrophila (Aeromonas hydrophila): 25 µg/mL
MIC P. aeruginosa (Pseudomonas aeruginosa): 50 µg/mL
MIC C. diversus (Citrobacter diversus): 12.5 µg/mL
MIC K. pneumonia (Klebsiella pneumonia): 12.5 µg/mL

PRT693 (SSGMCQRNPQVCGPGRCISRPSGYTCACDSGFRLSPQGTRCI; listed as Homo sapiens)
MIC E. cloacae (Enterobacter cloacae): 12.5 µg/mL
MIC S. marcescens (Serratia marcescens): 50 µg/mL
MIC (E. coli DH5α): 25 µg/mL
MIC P. mirabilis (Proteus mirabilis): 25 µg/mL
MIC E. coli BL21 (E. coli BL21): 12.5 µg/mL
MIC P. vulgaris (Proteus vulgaris): 50 µg/mL
MIC M. catarrhalis (Moraxella catarrhalis): 12.5 µg/mL
MIC A. hydrophila (Aeromonas hydrophila): 25 µg/mL
MIC P. aeruginosa (Pseudomonas aeruginosa): 50 µg/mL
MIC C. diversus (Citrobacter diversus): 50 µg/mL
MIC K. pneumonia (Klebsiella pneumonia): 25 µg/mL
